“And” between values parts separate entries of the source, which are not always exact repeats. Equal values may be shown once. Read-outs that look alike come from different tables or passages of the source.
What was measured:
[1] = parameters: method as in Swissmedic special application Nr. SBH12-1310; details: one cancer patient, monotherapy 5600 mg/m2 once a week for 5 weeks; ref Swissmedic special application Nr. SBH12-1310; cited from earlier work
PECAM1/CD31 = assay: Serum angiogenesis marker, multiplex bead-based immunoassay (LEGENDplex); assay type: in vivo, human; details: for PECAM_1: serum, duplicate wells
Procedure: Serum angiogenesis markers were quantified by multiplex bead-based immunoassays following provided instructions (LEGENDplex™, Biolegend, San Diego, CA/USA). For biochemical markers, the percentage change comparing before (day 1 0 h) with after (last day 9 h) ITPP treatment was calculated.

[2] = parameters: method as in unpublished data obtained from NormOxys; details: rats, once a week for 5 weeks; ref unpublished data obtained from NormOxys; cited from earlier work
pancreatic carcinoma = tested on: pancreatic carcinoma; parameters: method as in ref 15 (supplementary references); details: ref 15 (supplementary references), cited from earlier work
hepatocellular carcinoma = tested on: hepatocellular carcinoma; parameters: method as in ref 10 (supplementary references); details: syngeneic, orthotopic rat model of hepatocellular carcinoma; ref 10 (supplementary references); cited from earlier work
[3] = tested on: human colon carcinomatosis; parameters: method as in ref 12 (supplementary references); details: xenogeneic mouse model of human colon carcinomatosis; ref 12 (supplementary references); cited from earlier work
ANG1 = assay: Serum angiogenesis marker, multiplex bead-based immunoassay (LEGENDplex); assay type: in vivo, human; parameters: ANG1: unit not given here; details: for ANG1: serum, duplicate wells
[4] = tested on: target lesions of PDAC, CRLM, CCA and HCC; assay: Metabolic radiological response, FDG-PET-CT, EORTC criteria; assay type: in vivo, human; parameters: key to EORTC response after chemotherapy / EORTC response after ITPP / RespITPP_EORTC / RespChemo_EORTC: CMR = complete metabolic response; PMR = partial metabolic response; SMD = stable metabolic disease; PMD = progressive metabolic disease; Median change in metabolic activity, EORTC: concentration or dose not given beside the values; details: for EORTC response after ITPP / EORTC response after chemotherapy: individual patients; for EORTC response after chemotherapy: chemotherapy subsequent to ITPP
Procedure: Radiological assessment, consisting of abdominal MRI and FDG-PET-CT, was performed before ITPP administration and after the 3-week treatment course. Where possible, radiological re-evaluation was performed after 3–6 cycles of chemotherapy. Radiological responses were evaluated according to the RECIST 1.1 criteria[56] for MRI and EORTC criteria[57] for FDG-PET-CT imaging.
Then first calculate the sum of diameters (DM) and SUV-activities of radiological target lesions before ITPP (sum_pre), after ITPP (sum_post) and after subsequent chemotherapy (sum_chemo) for assessment of morphological RECIST1.1 (diameter) and metabolical EORTC (SUV activiy) responses.
Patient 1 (dropout after only 2 infusions and subsequent death due to rapid oncological progression) is excluded for radiological assessment due to no follow up imaging available.
In a second step, we calculate percent changes (PC) of diameter and SUV activity between before ITPP, after ITPP and after chemotherapy.

[5] = following ITPP treatment, 27 patients
[6] = Patient 25, Cohort 8, PDAC, Day 3 post
[7] = Patient 25, Cohort 8, PDAC, Day 9 post
[8] = Patient 26, Cohort 8, PDAC, Day 3 post
[9] = Patient 26, Cohort 8, PDAC, Day 9 post
[10] = Patient 27, Cohort 8, CCC, Day 3 post
[11] = Patient 27, Cohort 8, CCC, Day 9 post
[12] = Patient 28, Cohort 8, CRLM, Day 3 post
[13] = Patient 28, Cohort 8, CRLM, Day 9 post
[14] = after chemotherapy subsequent to ITPP, 15 patients

SMILES: O=P1(O)OC2C3OP(=O)(O)OP(=O)(O)OC3C3OP(=O)(O)OP(=O)(O)OC3C2OP(=O)(O)O1 (stereo not drawn) [ITPP, Myo-inositol trispyrophosphate]
- Effect of the drug on the disease [1]: No effect
- Share of patients with reduced PECAM1 (PECAM1/CD31; [5]): 66.7%
- PECAM_1 (PECAM1/CD31; [6]): 261.09
- PECAM_1 (PECAM1/CD31; [7]): 287.51 and 289.5
- PECAM_1 (PECAM1/CD31; [8]): 298.56 and 289.5
- PECAM_1 (PECAM1/CD31; [9]): 215.26 and 221.83
- PECAM_1 (PECAM1/CD31; [10]): 350.64 and 331.88
- PECAM_1 (PECAM1/CD31; [11]): 286.17 and 303.44
- PECAM_1 (PECAM1/CD31; [12]): 299.11 and 271.68
- PECAM_1 (PECAM1/CD31; [13]): 262.91 and 211.07
- Human equivalent dose-corrected NOAEL [2]: 15,000 mg/m2
- Survival (pancreatic carcinoma; ITPP combined with half the usual dose of gemcitabine, all animals): > 200 days
- Survival (pancreatic carcinoma; ITPP treatment alone): 93 days
- Rats alive after 100 days (hepatocellular carcinoma): nine out of ten
- Decrease of tumor growth compared with capecitabine [3]: more efficient than capecitabine
- Share of patients with reduced ANG1 (ANG1; [5]): 51.9%
- ANG1 (ANG1; [6]): 692.38
- ANG1 (ANG1; [7]): 719.05 and 765.98
- ANG1 (ANG1; [8]): 143.21 and 130.63
- ANG1 (ANG1; [9]): 207.7 and 218.53
- ANG1 (ANG1; [10]): 904.42 and 799.6
- ANG1 (ANG1; [11]): 835.71 and 800.95
- ANG1 (ANG1; [12]): 981.48 and 747.77
- ANG1 (ANG1; [13]): 618.86 and 532.8
- Median change in metabolic activity, EORTC ([4]; CCA, following chemotherapy): −32.39%
- Median change in metabolic activity, EORTC ([4]; CCA, under ITPP monotherapy): 17.97%
- Median change in metabolic activity, EORTC ([4]; CRLM, following chemotherapy): −14.64%
- Median change in metabolic activity, EORTC ([4]; CRLM, under ITPP monotherapy): 40.1%
- Median change in metabolic activity, EORTC ([4]; HCC, following chemotherapy): −8.47%
- Median change in metabolic activity, EORTC ([4]; HCC, under ITPP monotherapy): 15.54%
- Share of patients with PMR ([4]; ITPP monotherapy): 15%
- Share of patients with SMD ([4]; ITPP monotherapy): 41%
- Median change in metabolic activity, EORTC ([4]; PDAC, following chemotherapy): −52.19%
- Median change in metabolic activity, EORTC ([4]; PDAC, under ITPP monotherapy): −3.36%
- Metabolic progressions (PMD), EORTC ([4]; after ITPP monotherapy): 10
- Partial metabolic responses (PMR), EORTC ([4]; after ITPP monotherapy): four
- Stable metabolic diseases (SMD), EORTC ([4]; after ITPP monotherapy): 11
- Patients with PMD, EORTC [4, 14]: 4
- Patients with PMR, EORTC [4, 14]: 4
- Patients with SMD, EORTC [4, 14]: 7
- Share of patients with PMR ([4]; after subsequent chemotherapy): 27%
- Share of patients with SMD ([4]; after subsequent chemotherapy): 47%
- EORTC response after ITPP ([4]; cohort 1 (1866 mg/m2)): PMD and PMR and SMD
- EORTC response after chemotherapy ([4]; cohort 1, 1866 mg/m2): PMR
- EORTC response after ITPP ([4]; cohort 2 (3732 mg/m2)): SMD and PMR
- EORTC response after chemotherapy ([4]; cohort 2, 3732 mg/m2): SMD and PMR
- EORTC response after ITPP ([4]; cohort 3 (5600 mg/m2)): SMD and PMR
- EORTC response after chemotherapy ([4]; cohort 3, 5600 mg/m2): SMD and PMD
- EORTC response after ITPP ([4]; cohort 4 (7000 mg/m2)): PMD and SMD
- EORTC response after chemotherapy ([4]; cohort 4, 7000 mg/m2): SMD
- EORTC response after ITPP ([4]; cohort 5 (8750 mg/m2)): SMD and PMD
